# Columns and labels:
# Format in all cases: cell-based
# [1] = system: HCV genotype 1b replicon with NS5A L31V+Y93H (double mutant); assay: Transiently transfected assay of genotype 1b resistance mutant RNA L31V+Y93H (double mutant); settings: Hepatitis C virus, Huh-7.5.1, 72 h, read-out: HCV Mutation L31V + Y93H
# From the text: (§1) <Experimental Example 3> Transiently Transfected Assay of Genotype 1b Resistance Mutant RNAs
# (§2) Replicon genomes substituted with Y93H, L31V and L31V+Y93H (double mutant), the resistance mutants to Daclatasvir with mutations at the NS5A protein domain 1.
# (§3) These HCV resistance mutant genomes were linearized with scal restriction enzyme, and then the mutated HCV RNA was synthesized through in vitro transcription. Huh 7.5.1 cells were individually electroporated with HCV RNA with resistant mutations and plated in a 12 well plate. After 4 hours, Huh7.5.1 cells were seeded in DMEM containing the compounds of examples serially diluted for 3 days. Three days later, the cells were harvested and the intracellular luciferase activity was measured. The luciferase activity was normalized with those obtained from the negative control cells (mock-treated cells).
# [2] = system: HCV genotype 1b replicon with NS5A Y93H mutation; assay: Transiently transfected assay of genotype 1b resistance mutant RNA Y93H; settings: Hepatitis C virus, Huh-7.5.1, 72 h, read-out: HCV Mutation Y93H
# From the text: as §1, §2, §3
# [3] = system: JFH5a-Rluc-ad34 virus (HCV GT-2a); assay: Anti-HCV activity using HCVcc (JFH5a-Rluc-ad34 virus) in Huh 7.5.1 cells, Renilla luciferase readout; settings: Hepatitis C virus, GT2A, Huh-7.5.1, 72 h, read-out: HCV wt. GT-2a
# Description: <Experimental Example 1> Measurement of Anti-HCV Activity of Compounds of Examples Using HCVcc
# Step 1: Cell Line and Cell Culture
# Huh 7.5.1 cells were grown in Dulbecco's Modified Eagle's medium (DMEM; Gibco) supplemented with antibiotics (100 U/mL penicillin, 10 μg/mL streptomycin) and 10% heat-inactivated fetal bovine serum (ΔFBS; PEAK) in a CO2 incubator at 37° C. with […].
# Huh7.5.1 cells were transfected with in vitro transcription RNA of JFH5a-Rluc-ad34, a derivative of JFH1 with adaptive mutations in E2 and p7 regions, by electroporation. JFH5a-Rluc-ad34 virus contains Renilla luciferase (Rluc), which is convenient for virus proliferation assay. The cell culture medium containing HCV was collected 3-5 days after the electroporation and then filtered through a […] pore size filter.
# Step 3: Antiviral Activity Test Using Infectious HCV Particles
# Huh 7.5.1 cells were inoculated with JFH5a-Rluc-ad34 virus and incubated for 4 hours. Four hours after the virus inoculation, the Huh7.5.1 cells infected with HCV were cultured in the medium containing the compound of examples serially diluted. Three days later, the cells were harvested and the intracellular luciferase activity was measured using Renilla luciferase assay system (Promega). Finally, the luciferase activity was normalized with those obtained from the negative control cells (mock-treated cells).
# [4] = system: HCV replicon S52-Feo (genotype 3a); assay: Anti-HCV activity using HCV replicon S52-Feo (genotype 3a) in Huh 7.5.1 cells, luciferase readout; settings: Hepatitis C virus, 72 h; Huh 7.5.1 cells with S52-Feo replicon, 3 days, firefly luciferase; read-out: HCV wt. GT-3a
# [5] = system: HCV genotype 1b replicon with NS5A L31V mutation; assay: Transiently transfected assay of genotype 1b resistance mutant RNA L31V; settings: Hepatitis C virus, Huh-7.5.1, 72 h, read-out: HCV Mutation L31V
# From the text: as §1, §2, §3
# [6] = system: HCV replicon NK5.1-Gluc (genotype 1b); assay: Anti-HCV activity using HCV replicon NK5.1-Gluc (genotype 1b) in Huh 7.5.1 cells, luciferase readout; settings: Hepatitis C virus, 72 h; Huh 7.5.1 cells with NK5.1-Gluc replicon, 3 days, Gaussia luciferase; read-out: HCV wt. GT-1b
Structure (SMILES),EC50 [1] [nM],EC50 [2] [nM],EC50 [3] [nM],EC50 [4] [nM],EC50 [5] [nM],EC50 [6] [nM]
"CCCC1(CCC)c2cc(NC(=O)[C@@H]3CCCN3C(=O)[C@H](NC(=O)OC)c3ccccc3)ccc2-c2ccc(NC(=O)[C@@H]3CCCN3C(=O)[C@H](NC(=O)OC)c3ccccc3)cc21 [Example 1, dimethyl ((1R,1′R)-((2S,2′S)-(((9,9-dipropyl-9H-fluorene-2,7-diyl)bis(azanediyl))bis(carbonyl))bis(pyrrolidine-2,1-diyl))bis(2-oxo-1-phenylethane-2,1-diyl))dicarbamate]",> 100,1 to 100,1 to 100,0.1 to 1,0.1 to 1,0.01 to 0.1
"CCCCC1(CCCC)c2cc(NC(=O)[C@@H]3CCCN3C(=O)[C@H](NC(=O)OC)c3ccccc3)ccc2-c2ccc(NC(=O)[C@@H]3CCCN3C(=O)[C@H](NC(=O)OC)c3ccccc3)cc21 [Example 2, dimethyl ((1R,1′R)-((2S,2′S)-(((9,9-dibutyl-9H-fluorene-2,7-diyl)bis(azanediyl))bis(carbonyl))bis(pyrrolidine-2,1-diyl))bis(2-oxo-1-phenylethane-2,1-diyl))dicarbamate]",1 to 100,0.1 to 1,1 to 100,0.01 to 0.1,0.001 to 0.01,0.001 to 0.01
"CCCC1(CCC)c2cc(NC(=O)[C@@H]3CCCN3C(=O)[C@H](NC(=O)OC)c3ccccc3)ccc2-c2ccc(-c3cnc([C@@H]4CCCN4C(=O)[C@@H](NC(=O)OC)C(C)C)[nH]3)cc21 [Example 3, methyl ((S)-1-((S)-2-(5-(9,9-dipropyl-7-((S)-1-((R)-2-((methoxycarbonyl)amino)-2-phenylacetyl)pyrrolidine-2-carboxyamido)-9H-fluorene-2-yl)-1H-imidazole-2-yl)pyrrolidine-1-yl)-3-methyl-1-oxobutane-2-yl)carbamate]",1 to 100,0.01 to 0.1,0.01 to 0.1,0.01 to 0.1,0.01 to 0.1,0.01 to 0.1
"COC(=O)N[C@@H](C(=O)N1CCC[C@H]1C(=O)Nc1ccc2c(c1)C(CCCC(F)(F)F)(CCCC(F)(F)F)c1cc(NC(=O)[C@@H]3CCCN3C(=O)[C@H](NC(=O)OC)c3ccccc3)ccc1-2)c1ccccc1 [Example 4, dimethyl ((1R,1′R)-((2S,2′S)-(((9,9-bis(4,4,4-trifluorobutyl)-9H-fluorene-2,7-diyl)bis(azanediyl))bis(carbonyl))bis(pyrrolidine-2,1-diyl))bis(2-oxo-1-phenylethane-2,1-diyl))dicarbamate]",1 to 100,> 100,1 to 100,0.01 to 0.1,0.1 to 1,0.001 to 0.01
"COC(=O)N[C@H](C(=O)N1CCC[C@@H]1C(=O)Nc1ccc2c(c1)C(CCCCC(F)(F)F)(CCCCC(F)(F)F)c1cc(NC(=O)[C@@H]3CCCN3C(=O)[C@H](NC(=O)OC)c3ccccc3)ccc1-2)c1ccccc1 [Example 5, methyl ((R)-2-((S)-2-((7-((R)-1-((S)-2-((methoxycarbonyl)amino)-2-phenylacetyl)pyrrolidine-2-carboxyamido)-9,9-bis(5,5,5-trifluoropentyl)-9H-fluorene-2-yl)carbamoyl)pyrrolidine-1-yl)-2-oxo-1-phenylethyl)carbamate]",> 100,> 100,1 to 100,0.01 to 0.1,0.1 to 1,0.001 to 0.01
"CCCCC1(CCCC)c2cc(NC(=O)[C@@H]3CC(=O)CN3C(=O)[C@H](NC(=O)OC)c3ccccc3)ccc2-c2ccc(NC(=O)[C@@H]3CC(=O)CN3C(=O)[C@H](NC(=O)OC)c3ccccc3)cc21 [Example 6, dimethyl ((1R,1′R)-((5S,5′S)-(((9,9-dibutyl-9H-fluorene-2,7-diyl)bis(azanediyl))bis(carbonyl))bis(3-oxopyrrolidine-5,1-diyl))bis(2-oxo-1-phenylethane-2,1-diyl))dicarbamate]",1 to 100,0.1 to 1,0.1 to 1,0.01 to 0.1,0.001 to 0.01,0.01 to 0.1
"CCCCC1(CCCC)c2cc(NC(=O)[C@@H]3CC(=O)CN3C(=O)[C@H](NC(=O)OC)c3ccccc3)ccc2-c2ccc(NC(=O)[C@@H]3CC4(CN3C(=O)[C@H](NC(=O)OC)c3ccccc3)OCCO4)cc21 [Example 7, methyl ((R)-2-((S)-8-((9,9-dibutyl-7-((S)-1-((R)-2-((methoxycarbonyl)amino)-2-phenylacetyl)-4-oxopyrrolidine-2-carboxyamido)-9H-fluorene-2-yl)carbamoyl)-1,4-dioxa-7-azaspiro[4.4]nonane-7-yl)-2-oxo-1-phenylethyl)carbamate]",0.1 to 1,0.01 to 0.1,1 to 100,0.01 to 0.1,0.001 to 0.01,0.01 to 0.1
"CCC1(CC)c2cc(NC(=O)[C@@H]3CCCN3C(=O)[C@H](NC(=O)OC)c3ccccc3)ccc2-c2ccc(-c3cnc([C@@H]4CCCN4C(=O)[C@@H](NC(=O)OC)C(C)C)[nH]3)cc21 [Example 8, methyl ((S)-1-((S)-2-(5-(9,9-diethyl-7-((S)-1-((R)-2-((methoxycarbonyl)amino)-2-phenylacetyl)pyrrolidine-2-carboxyamido)-9H-fluorene-2-yl)-1H-imidazole-2-yl)pyrrolidine-1-yl)-3-methyl-1-oxobutane-2-yl)carbamate]",1 to 100,0.01 to 0.1,0.001 to 0.01,0.01 to 0.1,0.01 to 0.1,0.001 to 0.01
"CCCCC1(CCCC)c2cc(NC(=O)[C@@H]3CCCN3C(=O)[C@H](NC(=O)OC)c3ccccc3)ccc2-c2ccc(-c3cnc([C@@H]4CCCN4C(=O)[C@@H](NC(=O)OC)C(C)C)[nH]3)cc21 [Example 9, methyl ((S)-1-((S)-2-(5-(9,9-dibutyl-7-((S)-1-((R)-2-((methoxycarbonyl)amino)-2-phenylacetyl)pyrrolidine-2-carboxyamido)-9H-fluorene-2-yl)-1H-imidazole-2-yl)pyrrolidine-1-yl)-3-methyl-1-oxobutane-2-yl)carbamate]",0.1 to 1,0.01 to 0.1,0.01 to 0.1,0.01 to 0.1,0.01 to 0.1,0.001 to 0.01
"CCCCC1(CCCC)c2cc(NC(=O)[C@@H]3CC(F)(F)CN3C(=O)[C@H](NC(=O)OC)c3ccccc3)ccc2-c2ccc(NC(=O)[C@@H]3CC(F)(F)CN3C(=O)[C@H](NC(=O)OC)c3ccccc3)cc21 [Example 20, dimethyl ((1R,1′R)-((5S,5′S)-(((9,9-dibutyl-9H-fluorene-2,7-diyl)bis(azanediyl))bis(carbonyl))bis(3,3-difluoropyrrolidine-5,1-diyl))bis(2-oxo-1-phenylethane-2,1-diyl))dicarbamate]",–,1 to 100,1 to 100,0.01 to 0.1,0.01 to 0.1,0.001 to 0.01
CCCCC1(CCCC)c2cc(NC(=O)[C@@H]3CC(F)(F)CN3C(=O)[C@H](NC(=O)OC)c3ccccc3)ccc2-c2ccc(NC(=O)[C@@H]3CC4(CC4)CN3C(=O)[C@H](NC(=O)OC)c3ccccc3)cc21 [Example 23],> 100,1 to 100,–,–,0.001 to 0.01,–
CCCCC1(CCCC)c2cc(NC(=O)[C@@H]3CC(F)(F)CN3C(=O)[C@H](NC(=O)OC)c3ccccc3)ccc2-c2ccc(NC(=O)[C@@H]3C[C@@H]4CCC[C@@H]4N3C(=O)[C@H](NC(=O)OC)c3ccccc3)cc21 [Example 24],1 to 100,1 to 100,–,–,0.001 to 0.01,–

# — patent US11261175B2 (priority 2017, dated 2022)
